According to patent US9809625B2, “Immunomodulators” (BRISTOL-MYERS SQUIBB COMPANY, priority 2015, dated 2017):
Bridge positions count the residues as written; N and C are the ends. Square brackets hold non-standard residues; d marks the D form. Peptide text beside a SMILES is read from it. * marks the point of attachment. ξ: configuration not given here. Trp(1-CH2COOH) = N[C@@H](Cc1cn(CC(=O)O)c2ccccc12)C(=O)O; Hyp = O=C(O)[C@@H]1C[C@@H](O)CN1; ξW = NC(Cc1c[nH]c2ccccc12)C(=O)O; NMeNle = CCCC[C@H](NC)C(=O)O; NH(CH2)3NMe2 = CN(C)CCCN*; NMeA = CN[C@@H](C)C(=O)O; Piperidide = C1CCN(*)CC1; Dab = NCC[C@H](N)C(=O)O; Dap = NC[C@H](N)C(=O)O; X1 = CN(C)C1CCN(*)CC1; NHBn = c1ccc(CN*)cc1; NHCH2CH2OMe = COCCN*; NHCH2cPr = C1CC1CN*; X12 = OCC1CCN(*)CC1; NHCH2CH2OH = OCCN*; OtBu = CC(C)(C)O*; βAla = NCCC(=O)O; NHcPr = C1CC1N*; Sar = CNCC(=O)O; NHBu = CCCCN*

Target: T1, PD-1-Ig binding to PD-L1-TVMV-His (PD-L1-His) (Homo sapiens, UniProt Q9NZQ7)
T1 construct: hPDL1(19-239)-TVMV-His; TVMV protease cleavage site (C); made in house; host or cells: HEK293T
T1 sequence (Q9NZQ7 with tags, fused parts or gaps): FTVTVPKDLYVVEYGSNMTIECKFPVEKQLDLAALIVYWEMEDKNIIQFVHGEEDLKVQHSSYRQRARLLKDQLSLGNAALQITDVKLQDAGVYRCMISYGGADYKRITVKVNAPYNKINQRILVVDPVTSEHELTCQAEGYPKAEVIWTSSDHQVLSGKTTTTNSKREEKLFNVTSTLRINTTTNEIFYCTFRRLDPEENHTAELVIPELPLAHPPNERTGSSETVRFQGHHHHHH
Assay: PD-1/PD-L1 Homogenous Time-Resolved Fluorescence (HTRF) binding assay
Conditions: PD-1-Ig (20 nM)/PD-L1-His (10 nM), range classes
Excerpt: Methods for Testing the Ability of Macrocyclic Peptides to Compete for the Binding of PD-1 to PD-L1 Using Homogenous Time-Resolved Fluorescence (HTRF) Binding Assays
The ability of the macrocyclic peptides of the present disclosure to bind to PD-L1 was investigated using a PD-1/PD-L1 Homogenous Time-Resolved Fluorescence (HTRF) binding assay.
Homogenous Time-Resolved Fluorescence (HTRF) Assays of Binding of Soluble PD-1 to Soluble PD-L1. Soluble PD-1 and soluble PD-L1 refers to proteins with carboxyl-end truncations that remove the transmembrane-spanning regions and are fused to heterologous sequences, specifically the Fc portion of the human immunoglobuling G sequence (Ig) or the hexahistidine epitope tag (His). All binding studies were performed in an HTRF assay buffer consisting of dPBS supplemented with 0.1% (w/v) bovine serum albumin and 0.05% (v/v) Tween-20. For the PD-1-Ig/PD-L1-His binding assay, inhibitors were pre-incubated with PD-L1-His (10 nM final) for 15 m in 4 μl of assay buffer, followed by addition of PD-1-Ig (20 nM final) in 1 μl of assay buffer and further incubation for 15 m. PD-L1 fusion proteins from either human, cynomologous macaques, mouse, or other species were used. HTRF detection was achieved using europium crypate-labeled anti-Ig monoclonal antibody (1 nM final) and allophycocyanin (APC) labeled anti-His monoclonal antibody (20 nM final). Antibodies were diluted in HTRF detection buffer and 5 μl was dispensed on top of binding reaction. The reaction was allowed to equilibrate for 30 minutes and signal (665 nm/620 nm ratio) was obtained using an EnVision fluorometer. Additional binding assays were established between PD-1-Ig/PD-L2-His (20 and 5 nM, respectively), CD80-His/PD-L1-Ig (100 and 10 nM, respectively) and CD80-His/CTLA4-Ig (10 and 5 nM, respectively). Binding/competition studies between biotinylated Compound No. 71 and human PD-L1-His were performed as follows. Macrocyclic peptide inhibitors were pre-incubated with PD-L1-His (10 nM final) for 60 minutes in 4 μl of assay buffer followed by addition of biotinylated Compound No. 71 (0.5 nM final) in 1 μl of assay buffer. Binding was allowed to equilibrate for 30 minutes followed by addition of europium crypated labeled Streptavidin (2.5 pM final) and APC-labeled anti-His (20 nM final) in 5 μl of HTRF buffer. The reaction was allowed to equilibrate for 30 m and signal (665 nm/620 nm ratio) was obtained using an EnVision fluorometer.
Recombinant Proteins. Carboxyl-truncated human PD-1 (amino acids 25-167) with a C-terminal human Ig epitope tag [hPD-1 (25-167)-3S-IG] and human PD-L1 (amino acids 18-239) with a C-terminal His epitope tag [hPD-L1(19-239)-tobacco vein mottling virus protease cleavage site (TVMV)-His] were expressed in HEK293T cells and purified sequentially by recombinant Protein A affinity chromatography and size exclusion chromatography. Human PD-L2-His (Sino Biologicals), CD80-His (Sino Biologicals), CTLA4-Ig (RnD Systems) were all obtained through commercial sources.

Row | Structure (SMILES) | IC50
1 | CCCC[C@H]1C(=O)N(C)[C@@H](CCCC)C(=O)N[C@@H](CC(C)C)C(=O)N[C@H](C(=O)NCC(=O)NCC2CC2)CSCC(=O)N[C@@H](Cc2ccc(O)cc2)C(=O)N(C)[C@@H](C)C(=O)N[C@@H](CC(N)=O)C(=O)N2CCC[C@H]2C(=O)N[C@@H](CN)C(=O)N[C@@H](CC(C)C)C(=O)N2C[C@H](O)C[C@H]2C(=O)N[C@@H](Cc2c[nH]c3ccccc23)C(=O)NCC(=O)NC(Cc2c[nH]c3ccccc23)C(=O)N1C (stereo partly drawn) [Example 13104] ({CH2CO}-Y[NMeA]NP[Dap]L[Hyp]WG[ξW][NMeNle][NMeNle]LCG-NHCH2cPr; thioether N-14) | 10 to 60 nM
2 | CCCC[C@H]1C(=O)N(C)[C@@H](CCCC)C(=O)N[C@@H](CC(C)C)C(=O)N[C@H](C(=O)NCC(=O)N2CCCCC2)CSCC(=O)N[C@@H](Cc2ccc(O)cc2)C(=O)N(C)[C@@H](C)C(=O)N[C@@H](CC(N)=O)C(=O)N2CCC[C@H]2C(=O)N[C@@H](CN)C(=O)N[C@@H](CC(C)C)C(=O)N2C[C@H](O)C[C@H]2C(=O)N[C@@H](Cc2c[nH]c3ccccc23)C(=O)NCC(=O)N[C@@H](Cc2c[nH]c3ccccc23)C(=O)N1C [Example 13086] ({CH2CO}-Y[NMeA]NP[Dap]L[Hyp]WGW[NMeNle][NMeNle]LCG-Piperidide; thioether N-14) | 4 to 9.9 nM
3 | CCCC[C@H]1C(=O)N(C)[C@@H](CCCC)C(=O)N[C@@H](CC(C)C)C(=O)N[C@H](C(=O)NCC(=O)NCCC(=O)OC(C)(C)C)CSCC(=O)N[C@@H](Cc2ccc(O)cc2)C(=O)N(C)[C@@H](C)C(=O)N[C@@H](CC(N)=O)C(=O)N2CCC[C@H]2C(=O)N[C@@H](CN)C(=O)N[C@@H](CC(C)C)C(=O)N2C[C@H](O)C[C@H]2C(=O)N[C@@H](Cc2c[nH]c3ccccc23)C(=O)NCC(=O)NC(Cc2c[nH]c3ccccc23)C(=O)N1C (stereo partly drawn) [Example 13109] ({CH2CO}-Y[NMeA]NP[Dap]L[Hyp]WG[ξW][NMeNle][NMeNle]LCG[βAla]-OtBu; thioether N-14) | 10 to 60 nM
4 | CCCC[C@H]1C(=O)N(C)[C@@H](CCCC)C(=O)N[C@@H](CC(C)C)C(=O)N[C@H](C(=O)NCC(=O)NCc2ccccc2)CSCC(=O)N[C@@H](Cc2ccc(O)cc2)C(=O)N(C)[C@@H](C)C(=O)N[C@@H](CC(N)=O)C(=O)N2CCC[C@H]2C(=O)N[C@@H](CN)C(=O)N[C@@H](CC(C)C)C(=O)N2C[C@H](O)C[C@H]2C(=O)N[C@@H](Cc2c[nH]c3ccccc23)C(=O)N[C@@H](CCN)C(=O)N[C@@H](Cc2cn(CC(=O)O)c3ccccc23)C(=O)N1C [Example 13080] ({CH2CO}-Y[NMeA]NP[Dap]L[Hyp]W[Dab][Trp(1-CH2COOH)][NMeNle][NMeNle]LCG-NHBn; thioether N-14) | 4 to 9.9 nM
5 | CCCC[C@H]1C(=O)N(C)[C@@H](CCCC)C(=O)N[C@@H](CC(C)C)C(=O)N[C@H](C(=O)NCC(=O)NCCCN(C)C)CSCC(=O)N[C@@H](Cc2ccc(O)cc2)C(=O)N(C)[C@@H](C)C(=O)N[C@@H](CC(N)=O)C(=O)N2CCC[C@H]2C(=O)N[C@@H](CN)C(=O)N[C@@H](CC(C)C)C(=O)N2C[C@H](O)C[C@H]2C(=O)N[C@@H](Cc2c[nH]c3ccccc23)C(=O)NCC(=O)NC(Cc2c[nH]c3ccccc23)C(=O)N1C (stereo partly drawn) [Example 13098] ({CH2CO}-Y[NMeA]NP[Dap]L[Hyp]WG[ξW][NMeNle][NMeNle]LCG-{NH(CH2)3NMe2}; thioether N-14) | 10 to 60 nM
6 | CCCC[C@H]1C(=O)N(C)[C@@H](CCCC)C(=O)N[C@@H](CC(C)C)C(=O)N[C@H](C(=O)NCC(=O)NC2CC2)CSCC(=O)N[C@@H](Cc2ccc(O)cc2)C(=O)N(C)[C@@H](C)C(=O)N[C@@H](CC(N)=O)C(=O)N2CCC[C@H]2C(=O)N[C@@H](CN)C(=O)N[C@@H](CC(C)C)C(=O)N2C[C@H](O)C[C@H]2C(=O)N[C@@H](Cc2c[nH]c3ccccc23)C(=O)NCC(=O)NC(Cc2c[nH]c3ccccc23)C(=O)N1C (stereo partly drawn) [Example 13091] ({CH2CO}-Y[NMeA]NP[Dap]L[Hyp]WG[ξW][NMeNle][NMeNle]LCG-NHcPr; thioether N-14) | 4 to 9.9 nM
7 | CCCC[C@H]1C(=O)N(C)[C@@H](CCCC)C(=O)N[C@@H](CC(C)C)C(=O)N[C@H](C(=O)NCC(=O)N2CCC(CO)CC2)CSCC(=O)N[C@@H](Cc2ccc(O)cc2)C(=O)N(C)[C@@H](C)C(=O)N[C@@H](CC(N)=O)C(=O)N2CCC[C@H]2C(=O)N[C@@H](CN)C(=O)N[C@@H](CC(C)C)C(=O)N2C[C@H](O)C[C@H]2C(=O)N[C@@H](Cc2c[nH]c3ccccc23)C(=O)NCC(=O)NC(Cc2c[nH]c3ccccc23)C(=O)N1C (stereo partly drawn) [Example 13111] ({CH2CO}-Y[NMeA]NP[Dap]L[Hyp]WG[ξW][NMeNle][NMeNle]LCG-X12; thioether N-14) | 10 to 60 nM
8 | CCCC[C@H]1C(=O)N(C)[C@@H](CCCC)C(=O)N[C@@H](CC(C)C)C(=O)N[C@H](C(=O)NCC(=O)NCCO)CSCC(=O)N[C@@H](Cc2ccc(O)cc2)C(=O)N(C)[C@@H](C)C(=O)N[C@@H](CC(N)=O)C(=O)N2CCC[C@H]2C(=O)N[C@@H](CN)C(=O)N[C@@H](CC(C)C)C(=O)N2C[C@H](O)C[C@H]2C(=O)N[C@@H](Cc2c[nH]c3ccccc23)C(=O)NCC(=O)NC(Cc2c[nH]c3ccccc23)C(=O)N1C (stereo partly drawn) [Example 13095] ({CH2CO}-Y[NMeA]NP[Dap]L[Hyp]WG[ξW][NMeNle][NMeNle]LCG-NHCH2CH2OH; thioether N-14) | 10 to 60 nM
9 | CCCCNC(=O)CNC(=O)[C@@H]1CSCC(=O)N[C@@H](Cc2ccc(O)cc2)C(=O)N(C)[C@@H](C)C(=O)N[C@@H](CC(N)=O)C(=O)N2CCC[C@H]2C(=O)N[C@@H](CN)C(=O)N[C@@H](CC(C)C)C(=O)N2C[C@H](O)C[C@H]2C(=O)N[C@@H](Cc2c[nH]c3ccccc23)C(=O)NCC(=O)NC(Cc2c[nH]c3ccccc23)C(=O)N(C)[C@@H](CCCC)C(=O)N(C)[C@@H](CCCC)C(=O)N[C@@H](CC(C)C)C(=O)N1 (stereo partly drawn) [Example 13100] ({CH2CO}-Y[NMeA]NP[Dap]L[Hyp]WG[ξW][NMeNle][NMeNle]LCG-NHBu; thioether N-14) | 10 to 60 nM
10 | CCCC[C@H]1C(=O)N(C)[C@@H](CCCC)C(=O)N[C@@H](CC(C)C)C(=O)N[C@H](C(=O)N(C)CC(N)=O)CSCC(=O)N[C@@H](Cc2ccc(O)cc2)C(=O)N(C)[C@@H](C)C(=O)N[C@@H](CC(N)=O)C(=O)N2CCC[C@H]2C(=O)N[C@@H](CN)C(=O)N[C@@H](CC(C)C)C(=O)N2C[C@H](O)C[C@H]2C(=O)N[C@@H](Cc2c[nH]c3ccccc23)C(=O)NCC(=O)N[C@@H](Cc2c[nH]c3ccccc23)C(=O)N1C [Example 13090] ({CH2CO}-Y[NMeA]NP[Dap]L[Hyp]WGW[NMeNle][NMeNle]LC[Sar]-NH2; thioether N-14) | 4 to 9.9 nM
11 | CCCC[C@H]1C(=O)N(C)[C@@H](CCCC)C(=O)N[C@@H](CC(C)C)C(=O)N[C@H](C(=O)NCC(=O)N2CCC(N(C)C)CC2)CSCC(=O)N[C@@H](Cc2ccc(O)cc2)C(=O)N(C)[C@@H](C)C(=O)N[C@@H](CC(N)=O)C(=O)N2CCC[C@H]2C(=O)N[C@@H](CN)C(=O)N[C@@H](CC(C)C)C(=O)N2C[C@H](O)C[C@H]2C(=O)N[C@@H](Cc2c[nH]c3ccccc23)C(=O)NCC(=O)NC(Cc2c[nH]c3ccccc23)C(=O)N1C (stereo partly drawn) [Example 13103] ({CH2CO}-Y[NMeA]NP[Dap]L[Hyp]WG[ξW][NMeNle][NMeNle]LCG-X1; thioether N-14) | 10 to 60 nM
12 | CCCC[C@H]1C(=O)N(C)[C@@H](CCCC)C(=O)N[C@@H](CC(C)C)C(=O)N[C@H](C(=O)NCC(=O)NCCOC)CSCC(=O)N[C@@H](Cc2ccc(O)cc2)C(=O)N(C)[C@@H](C)C(=O)N[C@@H](CC(N)=O)C(=O)N2CCC[C@H]2C(=O)N[C@@H](CN)C(=O)N[C@@H](CC(C)C)C(=O)N2C[C@H](O)C[C@H]2C(=O)N[C@@H](Cc2c[nH]c3ccccc23)C(=O)NCC(=O)N[C@@H](Cc2c[nH]c3ccccc23)C(=O)N1C [Example 13082] ({CH2CO}-Y[NMeA]NP[Dap]L[Hyp]WGW[NMeNle][NMeNle]LCG-NHCH2CH2OMe; thioether N-14) | 10 to 60 nM
